Tests used:
wild oat = assay: Test B postemergence herbicide test; type: in vivo, Avena fatua
Procedure, shortened: (§1)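 Formulated test chemicals went onto postemergence plants measuring 2 to 18 cm, at one to four leaves. For the paddy assay, species had reached two leaves. Scoring took place 13–15 days later by eye, relative to untreated plants, using 0 for no effect up to 100 for full control.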

blackgrass = assay: Test B postemergence herbicide test; type: in vivo, Alopecurus myosuroides
Procedure, shortened: as §1

[1] = tested on: small flower umbrella sedge; assay: Test B flooded paddy test; type: in vivo, Cyperus difformis; conditions: 1000 g ai/ha, scale 0 to 100 (0 no effect, 100 complete control)
Procedure, shortened: as §1

barnyardgrass [2] = assay: Test B flooded paddy test; type: in vivo, Echinochloa crus-galli; conditions: 1000 g ai/ha, scale 0 to 100 (0 no effect, 100 complete control)
Procedure, shortened: as §1

cocklebur = assay: Test B pre-/postemergence herbicide test; type: in vivo, Xanthium strumarium
Procedure, shortened: (§2)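 Plants compared with untreated controls 13–15 days post-treatment and given a visual 0–100 injury score. Applications: preemergence to seeds; postemergence at 1- to 4-leaf (2–18 cm); paddy species flooded, 2-leaf stage. Vehicle non-phytotoxic, surfactant included.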

ducksalad = assay: Test B flooded paddy test; type: in vivo, Heteranthera limosa; conditions: 1000 g ai/ha, scale 0 to 100 (0 no effect, 100 complete control)
Procedure, shortened: as §1

rice = assay: Test B flooded paddy test; type: in vivo, Oryza sativa; conditions: 1000 g ai/ha, scale 0 to 100 (0 no effect, 100 complete control)
Procedure, shortened: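 Scale 0–100: zero equals no visible effect, 100 complete control, judged by eye relative to controls. Timing: 13 to 15 days in greenhouse post-treatment. Growth stage at spraying: two leaves (paddy) or one to four leaves, 2–18 cm (postemergence).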

large crabgrass = assay: Test B pre-/postemergence herbicide test; type: in vivo, Digitaria sanguinalis
Procedure, shortened: (§3)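 Formulation: non-phytotoxic solvent mix with surfactant. Timing: preemergence on seed and postemergence on 2–18 cm plants, applied concurrently. Readout after 13–15 d greenhouse: visual 0–100 control rating against controls.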

corn = assay: Test B pre-/postemergence herbicide test; type: in vivo, Zea mays
Procedure, shortened: as §3

velvetleaf = assay: Test B pre-/postemergence herbicide test; type: in vivo, Abutilon theophrasti
Procedure, shortened: as §3

morningglory = assay: Test B pre-/postemergence herbicide test; type: in vivo, Ipomoea coccinea
Procedure, shortened: as §2

wheat = assay: Test B postemergence herbicide test; type: in vivo, Triticum aestivum; parameters: key to Wheat plant response rating: 0 = no effect, 100 = complete control
Procedure, shortened: as §1

pigweed = assay: Test B pre-/postemergence herbicide test; type: in vivo, Amaranthus retroflexus
Procedure, shortened: as §3

barnyardgrass [3] = assay: Test B pre-/postemergence herbicide test; type: in vivo, Echinochloa crus-galli
Procedure, shortened: as §2

lambsquarters = assay: Test B pre-/postemergence herbicide test; type: in vivo, Chenopodium album
Procedure, shortened: as §3

Surinam grass = assay: Test B pre-/postemergence herbicide test; type: in vivo, Urochloa decumbens
Procedure, shortened: as §3

giant foxtail = assay: Test B pre-/postemergence herbicide test; type: in vivo, Setaria faberi
Procedure, shortened: as §3

[4] = 125 g ai/ha, visual rating, scale 0 (no effect) to 100 (complete control), postemergence
[5] = Postemergence, 500 g ai/ha, scale 0 (no effect) to 100 (complete control)
[6] = 125 g ai/ha, 0 is no effect, 100 is complete control, preemergence
[7] = Postemergence, 500 g ai/ha, visual rating after 13 to 15 days, scale 0 (no effect) to 100 (complete control)
[8] = postemergence, 125 g ai/ha, visual rating, scale 0 (no effect) to 100 (complete control)
[9] = 500 g ai/ha, visual rating 0-100, 0 no effect, 100 complete control, preemergence
[10] = preemergence, 125 g ai/ha, 0 to 100 scale, 0 is no effect, 100 is complete control
[11] = postemergence, 16 g ai/ha, scale 0 to 100
[12] = postemergence, 62 g ai/ha, scale 0 to 100

CCNC(=O)c1ccc(F)c(NC(=O)c2nn(C(C)C)nc2C)c1 [Compound 401]
Oat, Wild plant response rating (wild oat; [4]): 0
Oat, Wild plant response rating (wild oat; [5]): 0
Blackgrass plant response rating (blackgrass; [4]): 0
Blackgrass plant response rating (blackgrass; [5]): 0
Sedge, Umbrella plant response rating [1]: 0
Barnyardgrass plant response rating (barnyardgrass [2]): 0
Plant response rating (0 to 100 scale), Cocklebur (cocklebur; [6]): 0
Cocklebur plant response rating (cocklebur; [4]): 0
Cocklebur plant response rating (cocklebur; [5]): 0
Ducksalad plant response rating (ducksalad): 0
Rice plant response rating (rice): 20
Plant response rating (0 to 100 scale), Crabgrass, Large (large crabgrass; [6]): 0
Crabgrass, Large plant response rating (large crabgrass; [4]): 0
Crabgrass, Large plant response rating (large crabgrass; [5]): 0
Plant response rating (0 to 100 scale), Corn (corn; [6]): 0
Corn plant response rating (corn; [4]): 0
Corn plant response rating (corn; [5]): 0
Plant response rating (0 to 100 scale), Velvetleaf (velvetleaf; [6]): 0
Velvetleaf plant response rating (velvetleaf; [4]): 0
Velvetleaf plant response rating (velvetleaf; [5]): 0
Plant response rating (0 to 100 scale), Morningglory (morningglory; [6]): 0
Morningglory plant response rating (morningglory; [4]): 0
Morningglory plant response rating (morningglory; [5]): 0
Wheat plant response rating (wheat; [4]): 0
Wheat plant response rating (wheat; 500 g ai/ha, scale 0 to 100, 0 no effect, 100 complete control, preemergence): 0
Wheat plant response rating (wheat; [5]): 0
Plant response rating (0 to 100 scale), Pigweed (pigweed; [6]): 0
Pigweed plant response rating (pigweed; [4]): 0
Pigweed plant response rating (pigweed; [5]): 0
Plant response rating (0 to 100 scale), Barnyardgrass (barnyardgrass [3]; [6]): 0
Barnyardgrass plant response rating (barnyardgrass [3]; [4]): 0
Barnyardgrass plant response rating (barnyardgrass [3]; [5]): 0
Plant response rating (0 to 100 scale), Lambsquarters (lambsquarters; [6]): 0
Lambsquarters plant response rating (lambsquarters; [4]): 0
Lambsquarters plant response rating (lambsquarters; [5]): 0
Plant response rating (0 to 100 scale), Surinam Grass (Surinam grass; [6]): 0
Surinam Grass plant response rating (Surinam grass; [4]): 0
Surinam Grass plant response rating (Surinam grass; [5]): 0
Plant response rating (0 to 100 scale), Foxtail, Giant (giant foxtail; [6]): 0
Foxtail, Giant plant response rating (giant foxtail; [4]): 0
Foxtail, Giant plant response rating (giant foxtail; [5]): 0

CCCn1nc(C(C)(C)C)cc1C(=O)Nc1cccc(C(C)=NO)c1 [Compound 113]
Plant response rating, Oat, Wild (wild oat; [7]): 60
Oat, Wild plant response rating (wild oat; [8]): 40
Plant response rating, Blackgrass (blackgrass; [7]): 20
Blackgrass plant response rating (blackgrass; [8]): 10
Sedge, Umbrella plant response rating ([1]; visual rating, 13 to 15 days): 90
Barnyardgrass plant response rating (barnyardgrass [2]; visual rating, 13 to 15 days): 70
Plant response rating, Cocklebur (cocklebur; [9]): 20
Plant response rating, Cocklebur (cocklebur; [7]): 100
Cocklebur plant response rating (cocklebur; [8]): 100
Plant response rating, Cocklebur (cocklebur; [10]): 0
Ducksalad plant response rating (ducksalad; visual rating, 13 to 15 days): 90
Rice plant response rating (rice; visual rating, 13 to 15 days): 60
Plant response rating, Crabgrass, Large (large crabgrass; [9]): 100
Plant response rating, Crabgrass, Large (large crabgrass; [7]): 80
Crabgrass, Large plant response rating (large crabgrass; [8]): 30
Plant response rating, Crabgrass, Large (large crabgrass; [10]): 100
Plant response rating, Corn (corn; [9]): 0
Plant response rating, Corn (corn; [7]): 30
Corn plant response rating (corn; [8]): 30
Plant response rating, Corn (corn; [10]): 0
Plant response rating, Velvetleaf (velvetleaf; [9]): 20
Plant response rating, Velvetleaf (velvetleaf; [7]): 60
Velvetleaf plant response rating (velvetleaf; [8]): 20
Plant response rating, Velvetleaf (velvetleaf; [10]): 20
Plant response rating, Morningglory (morningglory; [9]): 50
Plant response rating, Morningglory (morningglory; [7]): 100
Morningglory plant response rating (morningglory; [8]): 20
Plant response rating, Morningglory (morningglory; [10]): 0
Plant response rating, Wheat (wheat; [7]): 30
Wheat plant response rating (wheat; [8]): 10
Plant response rating, Pigweed (pigweed; [9]): 100
Plant response rating, Pigweed (pigweed; [7]): 100
Pigweed plant response rating (pigweed; [8]): 90
Plant response rating, Pigweed (pigweed; [10]): 0
Plant response rating, Barnyardgrass (barnyardgrass [3]; [9]): 90
Plant response rating, Barnyardgrass (barnyardgrass [3]; [7]): 80
Barnyardgrass plant response rating (barnyardgrass [3]; [8]): 30
Plant response rating, Barnyardgrass (barnyardgrass [3]; [10]): 60
Plant response rating, Lambsquarters (lambsquarters; [9]): 100
Plant response rating, Lambsquarters (lambsquarters; [7]): 100
Lambsquarters plant response rating (lambsquarters; [8]): 90
Plant response rating, Lambsquarters (lambsquarters; [10]): 80
Plant response rating, Surinam Grass (Surinam grass; [9]): 10
Plant response rating, Surinam Grass (Surinam grass; [7]): 60
Surinam Grass plant response rating (Surinam grass; [8]): 40
Plant response rating, Surinam Grass (Surinam grass; [10]): 10
Plant response rating, Foxtail, Giant (giant foxtail; [9]): 30
Plant response rating, Foxtail, Giant (giant foxtail; [7]): 40
Foxtail, Giant plant response rating (giant foxtail; [8]): 30
Plant response rating, Foxtail, Giant (giant foxtail; [10]): 10

CCn1nc(C(C)(C)C)cc1C(=O)Nc1cc(C(=O)NC)c(F)cc1F [Compound 251]
Oat, Wild plant response rating (wild oat; [11]): 20
Oat, Wild plant response rating (wild oat; [12]): 20
Blackgrass plant response rating (blackgrass; [11]): 10
Blackgrass plant response rating (blackgrass; [12]): 50
Sedge, Umbrella plant response rating [1]: 40
Barnyardgrass plant response rating (barnyardgrass [2]): 0
Cocklebur plant response rating (cocklebur; [11]): 0
Cocklebur plant response rating (cocklebur; [12]): 0
Ducksalad plant response rating (ducksalad): 30
Rice plant response rating (rice): 40
Crabgrass, Large plant response rating (large crabgrass; [11]): 0
Crabgrass, Large plant response rating (large crabgrass; [12]): 0
Corn plant response rating (corn; [11]): 0
Corn plant response rating (corn; [12]): 0
Velvetleaf plant response rating (velvetleaf; [11]): 0
Velvetleaf plant response rating (velvetleaf; [12]): 10
Morningglory plant response rating (morningglory; [11]): 0
Morningglory plant response rating (morningglory; [12]): 0
Wheat plant response rating (wheat; [11]): 20
Wheat plant response rating (wheat; [12]): 20
Pigweed plant response rating (pigweed; [11]): 0
Pigweed plant response rating (pigweed; [12]): 10
Barnyardgrass plant response rating (barnyardgrass [3]; [11]): 0
Barnyardgrass plant response rating (barnyardgrass [3]; [12]): 0
Lambsquarters plant response rating (lambsquarters; [11]): 0
Lambsquarters plant response rating (lambsquarters; [12]): 10
Surinam Grass plant response rating (Surinam grass; [11]): 0
Surinam Grass plant response rating (Surinam grass; [12]): 0
Foxtail, Giant plant response rating (giant foxtail; [11]): 0
Foxtail, Giant plant response rating (giant foxtail; [12]): 0

Source: patent publication US20060069132A1, “Azolecarboxamide herbicides” (priority 2004, published 2006)
